For eleven compounds, GI50 and TGI results are on record in PubChem BioAssay (NCI).

Some test systems named below: SF-539 CNS; MALME-3M melanoma; M14 melanoma; NCI-H23 lung; HT29 colon; 786-0 renal; OVCAR-3 ovarian; ACHN renal; UACC-62 melanoma; CCRF-CEM leukemia.
What all share (experiment): NCI tumour cell line growth inhibition, 48 h

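Dose response: 5 concentrations. Exposure: 48 h. Format: 96-well plates. Endpoint: linear interpolation; highest concentration if not reached. Here, GI50 denotes the concentration required for 50% inhibition of growth. TGI denotes the concentration required for complete inhibition of growth.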

On to `O=C(O)c1cc2ccccc2c2c3c(ccc12)OCO3`, for which the GI50 in the experiment on SF-539 CNS was 132 µM; with MALME-3M melanoma it was 140 µM; in the experiment on M14 melanoma, 179 µM; in the experiment on NCI-H23 lung, 188 µM; with HT29 colon it was 281 µM; with 786-0 renal it was 273 µM. The GI50 with OVCAR-3 ovarian was 183 µM; in the experiment with ACHN renal, 221 µM; in the experiment on UACC-62 melanoma, 116 µM. The TGI in the experiment on SF-539 CNS came out at 337 µM; with MALME-3M melanoma, 361 µM; in the experiment on M14 melanoma, 493 µM; with NCI-H23 lung, 584 µM; in the experiment with HT29 colon, 791 µM; in the experiment with 786-0 renal, 936 µM. The TGI in the experiment on OVCAR-3 ovarian is 468 µM; with ACHN renal, over 1000 µM; in the experiment with UACC-62 melanoma it was 279 µM.

For the compound `Cc1ccc(S(=O)(=O)N/N=C(\c2nc3ccc([N+](=O)[O-])cc3[nH]c2=O)C(O)c2ccc([N+](=O)[O-])cc2)cc1` (configuration not stated), the TGI in the experiment with SF-539 CNS, with CCRF-CEM leukemia, in the experiment on MALME-3M melanoma, in the experiment on M14 melanoma, in the experiment with NCI-H23 lung and with 786-0 renal was over 100 µM in each case. The TGI in the experiment on OVCAR-3 ovarian, with ACHN renal and in the experiment with UACC-62 melanoma was over 100 µM in each case.

As for `COC(=O)c1cccc2c3ccccc3c3ccccc3c12`, the TGI in the experiment on CCRF-CEM leukemia is 72.8 µM; with MALME-3M melanoma, over 100 µM; in the experiment on M14 melanoma, over 100 µM; in the experiment on NCI-H23 lung, 54.7 µM; in the experiment with HT29 colon, 83 µM; with 786-0 renal, over 100 µM. Also, the TGI in the experiment on OVCAR-3 ovarian was 56 µM; in the experiment on ACHN renal, over 100 µM; with UACC-62 melanoma, over 100 µM.

On to `S=c1o[nH]c(-c2ccccc2)c1C=Nc1ccccc1`, for which the TGI in the experiment with SF-539 CNS, with CCRF-CEM leukemia, in the experiment with MALME-3M melanoma, in the experiment with M14 melanoma, in the experiment with NCI-H23 lung and in the experiment with HT29 colon was over 100 µM each time. For the same compound, the TGI in the experiment on 786-0 renal, with ACHN renal and with UACC-62 melanoma was over 100 µM throughout.

With `CCOC(=O)C1C=C2O[C@@H]3OC4(CCCCC4)O[C@@H]3C2C2C(=O)CCC(=O)[C@@]12C(=O)OC` (some centres not stated), the TGI in the experiment on CCRF-CEM leukemia, in the experiment with MALME-3M melanoma, in the experiment on M14 melanoma, in the experiment with NCI-H23 lung, in the experiment with 786-0 renal and in the experiment with OVCAR-3 ovarian was over 100 µM throughout. Besides, the TGI with ACHN renal and in the experiment on UACC-62 melanoma was over 100 µM each time.

As to `Cc1ccc(S(=O)(=O)NC(=O)NCCc2ccccc2)cc1`, the TGI with SF-539 CNS, in the experiment on CCRF-CEM leukemia, in the experiment with MALME-3M melanoma, in the experiment on M14 melanoma, in the experiment with NCI-H23 lung and with 786-0 renal was over 100 µM each time. The TGI with OVCAR-3 ovarian, in the experiment on ACHN renal and in the experiment on UACC-62 melanoma was over 100 µM throughout.

With `CCC1C(C)C=NN1c1nc(N)nc(C(C#N)=Nc2ccc(N(C)C)cc2)n1` (configuration not stated), the GI50 with SF-539 CNS is 1.03 µM; in the experiment with CCRF-CEM leukemia, 6.11 µM; with M14 melanoma, 9.11 µM; with NCI-H23 lung, 13.8 µM; in the experiment with HT29 colon, 16.5 µM; in the experiment on 786-0 renal, 17.4 µM. In addition, the GI50 is 10.1 µM with OVCAR-3 ovarian, 9.17 µM in the experiment with ACHN renal and 14.6 µM in the experiment on UACC-62 melanoma. For the same compound, the TGI in the experiment with SF-539 CNS was 5.97 µM; in the experiment on CCRF-CEM leukemia, 20.4 µM; in the experiment with M14 melanoma, 16.5 µM; with NCI-H23 lung, over 50 µM; in the experiment on HT29 colon, over 50 µM; in the experiment with 786-0 renal it was over 50 µM. The TGI is 21.8 µM with OVCAR-3 ovarian, 17.1 µM in the experiment on ACHN renal and over 50 µM in the experiment with UACC-62 melanoma.

Consider `O=C(Nc1cccc(-n2cc(-c3ccncc3)c(-c3ccc(O)c(Cl)c3)n2)c1)c1ccc2c(c1)OCCO2`, for which the GI50 was 6.63 µM with SF-539 CNS; 3.75 µM in the experiment on CCRF-CEM leukemia; over 100 µM in the experiment on MALME-3M melanoma; 5.83 µM in the experiment with M14 melanoma; over 100 µM in the experiment on NCI-H23 lung; 7.03 µM with HT29 colon. Also, the figures for the GI50 in the experiment on 786-0 renal, in the experiment with ACHN renal and in the experiment with UACC-62 melanoma were 3.27 µM, 7.38 µM and 7.96 µM, respectively. For the same compound, the TGI with SF-539 CNS, with CCRF-CEM leukemia, with MALME-3M melanoma, in the experiment on M14 melanoma, in the experiment on NCI-H23 lung and in the experiment with HT29 colon was over 100 µM throughout. Also, the TGI with 786-0 renal, in the experiment on ACHN renal and in the experiment with UACC-62 melanoma was over 100 µM each time.

On to `NCCCOc1cc2ccccc2cc1C(=O)Nc1ccc(Cl)cc1OC(=O)c1cc2ccccc2cc1OCCCN`, for which the GI50 was 0.345 µM in the experiment with SF-539 CNS; 0.413 µM in the experiment on CCRF-CEM leukemia; 0.321 µM with M14 melanoma; 0.387 µM in the experiment on NCI-H23 lung; 0.266 µM in the experiment on HT29 colon; 0.172 µM with 786-0 renal. Also, the GI50 in the experiment with OVCAR-3 ovarian was 0.612 µM; with ACHN renal, 0.373 µM; with UACC-62 melanoma, 1.44 µM. Besides, the TGI in the experiment with SF-539 CNS came to 0.9 µM; with CCRF-CEM leukemia, 1.39 µM; in the experiment on M14 melanoma, 1.26 µM; in the experiment with NCI-H23 lung, 1.2 µM; in the experiment on 786-0 renal, 0.327 µM; with OVCAR-3 ovarian, 1.43 µM. Besides, the TGI was 0.972 µM with ACHN renal and 2.85 µM in the experiment with UACC-62 melanoma.

On to `CCOC(=O)C(=O)Nc1cc(Cl)c(Cl)cc1Cl`, for which the TGI with SF-539 CNS, in the experiment on MALME-3M melanoma, with M14 melanoma, with NCI-H23 lung, in the experiment with HT29 colon and with 786-0 renal was over 100 µM each time. Further, the TGI with OVCAR-3 ovarian, in the experiment on ACHN renal and in the experiment with UACC-62 melanoma was over 100 µM each time.

On to `Nc1nonc1-c1nc2ccccc2n1Cc1ccc(F)cc1`, for which the GI50 in the experiment with SF-539 CNS was 8.14 µM; in the experiment with MALME-3M melanoma it was 5.09 µM; in the experiment on M14 melanoma it was 4.64 µM; in the experiment on NCI-H23 lung it was 87 µM; in the experiment with HT29 colon, 3.55 µM; with 786-0 renal it was 29.1 µM. The GI50 is 5.8 µM with OVCAR-3 ovarian, 16 µM in the experiment with ACHN renal and 4.63 µM in the experiment with UACC-62 melanoma. Moreover, the TGI with SF-539 CNS, in the experiment with MALME-3M melanoma, in the experiment with M14 melanoma, in the experiment with NCI-H23 lung, in the experiment on HT29 colon and with 786-0 renal was over 100 µM in each case. Besides, the TGI in the experiment with OVCAR-3 ovarian, with ACHN renal and in the experiment on UACC-62 melanoma was over 100 µM throughout.
